Laboratory results published in the NIST ThermoML archive (doi:10.1016/j.jct.2018.02.022).

Assay: xn = mol fraction of the nth substance listed
Details: 92.3 kPa, Liquid; for viscosity: Concentric cylinders viscometry; for speed of sound: Frequency=3 MHz, Single path-length method; for mass density: Vibrating tube method

OCC(O)CO [glycerol] + O
Details | mass density, 303.15 K [kg/m3] | mass density, 308.15 K [kg/m3] | speed of sound, 303.15 K [m/s] | speed of sound, 308.15 K [m/s] | viscosity, 303.15 K [mPa·s] | viscosity, 308.15 K [mPa·s]
x1 = 0.011 | 1008.02 | 1006.3 | 1529.5 | 1538.8 | – | –
x1 = 0.021 | 1018.65 | 1016.83 | 1548 | 1556.4 | – | –
x1 = 0.0302 | 1027.91 | 1026.01 | 1564.3 | 1571.8 | – | –
x1 = 0.0398 | 1037.12 | 1035.13 | 1580.8 | 1587.3 | – | –
x1 = 0.0546 | 1050.34 | 1048.23 | 1604.4 | 1609.6 | – | –
x1 = 0.0651 | 1058.89 | 1056.7 | 1620.4 | 1624.6 | – | –
x1 = 0.0721 | 1064.55 | 1062.31 | 1630.6 | 1634.3 | – | –
x1 = 0.0793 | 1069.8 | 1067.51 | 1640.5 | 1643.6 | – | –
x1 = 0.0898 | 1077.46 | 1075.13 | 1654.6 | 1656.9 | – | –
x1 = 0.0998 | 1084.34 | 1081.93 | 1667.4 | 1668.9 | 2.405 | 2.102
x1 = 0.1198 | 1096.94 | 1094.42 | 1690.6 | 1690.8 | – | –
x1 = 0.1549 | 1116.57 | 1113.89 | 1726.2 | 1724.3 | 3.932 | 3.385
x1 = 0.2024 | 1138.25 | 1135.43 | 1764 | 1760.1 | – | –
x1 = 0.2534 | 1157.11 | 1154.17 | 1794.9 | 1789.3 | 8.807 | 7.44
x1 = 0.2959 | 1170.15 | 1167.15 | 1814.7 | 1808.1 | 12.34 | 10.25
x1 = 0.3504 | 1184.07 | 1181.02 | 1834.3 | 1826.7 | 18.45 | 14.92
x1 = 0.4006 | 1194.81 | 1191.72 | 1848 | 1839.7 | 26.45 | 20.87
x1 = 0.4477 | 1203.34 | 1200.23 | 1857.9 | 1849 | 36.01 | 27.91
x1 = 0.4983 | 1211.29 | 1208.14 | 1866.4 | 1857.6 | 49.18 | 37.43
x1 = 0.5471 | 1218.12 | 1214.97 | 1872.9 | 1863.4 | 65.39 | 49.12
x1 = 0.6046 | 1224.8 | 1221.64 | 1878.8 | 1869 | 91.76 | 65.97
x1 = 0.6469 | 1229.27 | 1226.11 | 1882.3 | 1872.2 | 116.57 | 85.3
x1 = 0.7006 | 1234.31 | 1231.15 | 1886 | 1875.7 | 154.03 | 111.01
x1 = 0.7465 | 1238.26 | 1235.11 | 1888.8 | 1878.4 | 196.75 | 140.28
x1 = 0.7942 | 1241.97 | 1238.83 | 1891.5 | 1880.9 | 245.24 | 172.49
x1 = 0.8497 | 1245.72 | 1242.6 | 1894.1 | 1883.6 | 314.35 | 218.85
x1 = 0.8993 | 1248.75 | 1245.64 | 1895.6 | 1884.6 | 391.29 | 270.27
x1 = 0.9196 | 1250 | 1246.89 | 1896.7 | 1885.5 | – | –
x1 = 0.9322 | 1250.72 | 1247.62 | 1896.9 | 1885.8 | – | –
x1 = 0.9462 | 1251.51 | 1248.4 | 1897.2 | 1886.3 | 477.66 | 326.69
x1 = 0.9562 | 1252.03 | 1248.93 | 1897.8 | 1886.6 | – | –
x1 = 0.9855 | 1253.69 | 1250.59 | 1898.9 | 1887.5 | – | –
x1 = 1 | 1254.48 | 1251.38 | 1899.6 | 1888.1 | 593.09 | 401.76
